Reference: US8999976B2, “Modulators of cystic fibrosis transmembrane conductance regulator” (Vertex Pharmaceuticals Incorporated, priority 2008, dated 2015)
Where a name gives a salt, the structure may show the parent alone.

Molecular target: T1, ΔF508-CFTR (Homo sapiens, UniProt P13569, DEL508-508)
T1 construct: expressed in transfected cells
Test: Membrane potential optical assay for potentiators of ΔF508-CFTR (FLIPR III, voltage sensing dyes)
Type: cell-based
Conditions: for Emax: NIH3T3, 100% efficacy is the maximum response obtained with 4-methyl-2-(5-phenyl-1H-pyrazol-3-yl)phenol, ΔF508 CFTR NIH 3T3 cells; for EC50: temperature-corrected ΔF508 CFTR NIH 3T3 cells, forskolin activation
From the text: The assay utilizes fluorescent voltage sensing dyes to measure changes in membrane potential using a fluorescent plate reader (e.g., FLIPR III, Molecular Devices, Inc.) as a readout for increase in functional ΔF508-CFTR in NIH 3T3 cells.
To identify potentiators of ΔF508-CFTR, a double-addition HTS assay format was developed. This HTS assay utilizes fluorescent voltage sensing dyes to measure changes in membrane potential on the FLIPR III as a measurement for increase in gating (conductance) of ΔF508 CFTR in temperature-corrected ΔF508 CFTR NIH 3T3 cells.
Solutions • Bath Solution #1: (in mM) NaCl 160, KCl 4.5, CaCl2 2, MgCl2 1, HEPES 10, pH 7.4 with NaOH. • Chloride-Free Bath Solution: Chloride Salts in Bath Solution #1 are Substituted with Gluconate Salts.
NIH3T3 mouse fibroblasts stably expressing ΔF508-CFTR are used for optical measurements of membrane potential. The cells are maintained at 37° C. in 5% CO2 and 90% humidity in Dulbecco's modified Eagle's medium supplemented with 2 mM glutamine, 10% fetal bovine serum, 1×NEAA, β-ME, 1×pen/strep, and 25 mM HEPES in 175 cm^2 culture flasks. For all optical assays, the cells were seeded at ˜20,000/well in 384-well matrigel-coated plates and cultured for 2 hrs at 37° C. before culturing at 27° C. for 24 hrs. for the potentiator assay. For the correction assays, the cells are cultured at 27° C. or 37° C. with and without compounds for 16-24 hours. Electrophysiological Assays for assaying ΔF508-CFTR modulation properties of compounds.

T1 sequence (P13569 with tags, fused parts or gaps DEL508-508): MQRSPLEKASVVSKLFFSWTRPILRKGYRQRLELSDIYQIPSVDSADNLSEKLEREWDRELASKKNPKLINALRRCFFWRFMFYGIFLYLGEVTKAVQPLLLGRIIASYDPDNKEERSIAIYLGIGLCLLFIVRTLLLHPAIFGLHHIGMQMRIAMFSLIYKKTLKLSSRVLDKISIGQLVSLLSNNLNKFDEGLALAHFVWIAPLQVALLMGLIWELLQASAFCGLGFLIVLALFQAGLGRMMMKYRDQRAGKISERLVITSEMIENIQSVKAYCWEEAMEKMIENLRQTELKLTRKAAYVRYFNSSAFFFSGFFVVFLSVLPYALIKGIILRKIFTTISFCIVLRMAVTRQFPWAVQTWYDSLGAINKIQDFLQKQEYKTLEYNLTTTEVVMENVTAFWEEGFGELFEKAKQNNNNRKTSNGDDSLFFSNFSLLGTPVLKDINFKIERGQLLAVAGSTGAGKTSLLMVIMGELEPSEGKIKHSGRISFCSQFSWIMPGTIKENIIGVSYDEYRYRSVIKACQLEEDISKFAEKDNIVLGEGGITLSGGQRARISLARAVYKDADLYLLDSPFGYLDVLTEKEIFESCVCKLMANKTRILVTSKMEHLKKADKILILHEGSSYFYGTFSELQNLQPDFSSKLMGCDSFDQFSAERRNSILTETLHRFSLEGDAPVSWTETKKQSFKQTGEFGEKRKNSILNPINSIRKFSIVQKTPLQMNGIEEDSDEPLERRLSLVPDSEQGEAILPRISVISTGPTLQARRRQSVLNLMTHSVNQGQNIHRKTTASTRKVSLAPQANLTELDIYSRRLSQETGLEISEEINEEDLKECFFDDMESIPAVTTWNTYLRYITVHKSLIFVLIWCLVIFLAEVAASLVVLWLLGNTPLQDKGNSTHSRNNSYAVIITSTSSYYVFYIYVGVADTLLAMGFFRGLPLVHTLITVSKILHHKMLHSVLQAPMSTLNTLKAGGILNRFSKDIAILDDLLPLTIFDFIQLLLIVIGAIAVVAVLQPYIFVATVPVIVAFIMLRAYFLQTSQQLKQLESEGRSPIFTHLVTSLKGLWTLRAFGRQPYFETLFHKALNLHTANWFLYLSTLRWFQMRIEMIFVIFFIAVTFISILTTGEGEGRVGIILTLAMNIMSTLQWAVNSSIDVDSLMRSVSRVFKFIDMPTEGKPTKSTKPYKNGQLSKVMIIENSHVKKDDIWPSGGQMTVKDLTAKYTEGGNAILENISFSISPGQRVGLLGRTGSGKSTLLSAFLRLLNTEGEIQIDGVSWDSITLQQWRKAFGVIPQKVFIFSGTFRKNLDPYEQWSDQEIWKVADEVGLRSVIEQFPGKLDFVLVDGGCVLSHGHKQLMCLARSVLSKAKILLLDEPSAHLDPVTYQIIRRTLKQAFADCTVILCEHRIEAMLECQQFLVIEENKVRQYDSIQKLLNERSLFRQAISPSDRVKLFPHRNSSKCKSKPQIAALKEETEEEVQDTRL

Structure (SMILES)	Emax [%]	EC50 [µM]
Cc1ccc(NC(=O)C2CNc3cc(OC(F)(F)F)ccc3O2)c(C#CCN2CCC(N)CC2)c1 (centres unmarked) [Compound 101]	< 25	5 to 20
CC[N+](CC)(CC)CC#Cc1cc(C)ccc1NC(=O)C1CNc2cc(OC(F)(F)F)ccc2O1 (centres unmarked) [Compound 102]	25 to 100	5 to 20
CN(C)CC#Cc1cc(N2C3CCC2CC3)ccc1NC(=O)C1CNc2ccccc2O1 (centres unmarked) [Compound 104]	25 to 100	5 to 20
CS(=O)(=O)c1cc(C2CCCC2)c(O)cc1NC(=O)C1CNc2cc(OC(F)(F)F)ccc2O1 (centres unmarked) [Compound 105]	> 100	5 to 20
O=C(Nc1ccc(O)c(OC(F)(F)F)c1)C1CNc2ccc(F)cc2O1 (centres unmarked) [Compound 109]	25 to 100	5 to 20
CN1CCC(c2cc(C3CCCC3)c(O)cc2NC(=O)C2CNc3cc(C#N)ccc3O2)CC1 (centres unmarked) [Compound 111, 6-cyano-N-(4-cyclopentyl-5-hydroxy-2-(1-methylpiperidin-4-yl)phenyl)-3,4-dihydro-2H-benzo[b][1,4]oxazine-2-carboxamide]	< 25	5 to 20
CC(C)Oc1c(O)cccc1NC(=O)C1CNc2ccc(F)cc2O1 (centres unmarked) [Compound 112]	25 to 100	5 to 20
N#Cc1ccc2c(c1)NCC(C(=O)Nc1cc(O)c(C3CCCC3)cc1C1CCNCC1)O2 (centres unmarked) [Compound 113]	< 25	5 to 20
CN(C)CC#Cc1cc(F)ccc1NC(=O)C1CNc2cc(C#N)ccc2O1 (centres unmarked) [Compound 114]	25 to 100	5 to 20
Cc1ccc(NC(=O)C2CNc3cc(OC(F)(F)F)ccc3O2)c(CCN2CC[C@@H](F)C2)c1 (some centres unmarked) [Compound 119]	25 to 100	5 to 20
CC1(C(=O)Nc2cc(O)c(C3CCCC3)cc2C(F)(F)F)CNc2cc(OC(F)(F)F)ccc2O1 (centres unmarked) [Compound 128]	25 to 100	< 5
Cc1ccc(NC(=O)C2CNc3cc(OC(F)(F)F)ccc3O2)c(-c2nc(CN(C)C)no2)c1 (centres unmarked) [Compound 129]	25 to 100	< 5

Other lines, results leading:

Emax [%]	EC50 [µM]	Structure (SMILES)
25 to 100	< 5	O=C(Nc1cc(O)c(C2CCCC2)cc1Cl)C1CNc2ccc(F)cc2O1 (centres unmarked) [Compound 103]
> 100	< 5	CN(C)CC#Cc1cc(C2CCCC2)c(O)cc1NC(=O)C1CNc2cc(OC(F)(F)F)ccc2O1 (centres unmarked) [Compound 106]
25 to 100	< 5	Cc1cccc2c1OC(C(=O)Nc1ccc(C(C)(C)C)c(O)c1)CN2 (centres unmarked) [Compound 107]
25 to 100	< 5	CC1(c2cc(F)c(NC(=O)C3CNc4cc(OC(F)(F)F)ccc4O3)cc2O)CCCCC1 (centres unmarked) [Compound 108]
25 to 100	< 5	CN(C)CC#Cc1cc(C2CCCC2)ccc1NC(=O)C1CNc2cc(C#N)ccc2O1 (centres unmarked) [Compound 110]
25 to 100	< 5	CN(C(=O)C1CNc2ccccc2O1)c1ccc(C(C)(C)C)c(O)c1 (centres unmarked) [Compound 115, N-(4-tert-butyl-3-hydroxyphenyl)-N-methyl-3,4-dihydro-2H-benzo[b][1,4]oxazine-2-carboxamide hydrochloride]
25 to 100	< 5	Cc1ccc(NC(=O)C2CNc3cc(OC(F)(F)F)ccc3O2)c(CCN2CCOCC2)c1 (centres unmarked) [Compound 116]
> 100	< 5	CC1CCN(Cc2cc(C3CCCC3)c(O)cc2NC(=O)C2CNc3cc(OC(F)(F)F)ccc3O2)CC1 (centres unmarked) [Compound 117]
> 100	< 5	CCc1cc(CN2CCC(C)CC2)c(NC(=O)C2CNc3cc(OC(F)(F)F)ccc3O2)cc1O (centres unmarked) [Compound 118]
25 to 100	< 5	CC(C)(C)c1ccc(NC(=O)C2CNc3ccccc3S2)cc1O (centres unmarked) [Compound 120, N-(4-tert-butyl-3-hydroxy-phenyl)-3,4-dihydro-2H-1,4-benzothiazine-2-carboxamide]
25 to 100	< 5	CC(C)(C)c1ccc(NC(=O)C2CNc3ccccc3S2(=O)=O)cc1O (centres unmarked) [Compound 121, N-(4-tert-butyl-3-hydroxy-phenyl)-1,1-dioxo-3,4-dihydro-2H-benzo[b][1,4]thiazine-2-carboxamide]
25 to 100	< 5	CN(C)CC#Cc1cc(C2CCCC2)c(O)cc1NC(=O)C1CNc2cc(F)ccc2O1 (centres unmarked) [Compound 123]
25 to 100	< 5	Cc1cc2c(cc1F)NCC(C(=O)Nc1cc(O)c(C3CCCC3)cc1C#CCN(C)C)O2 (centres unmarked) [Compound 124]
< 25	< 5	CC(C)(C)c1ccc(NC(=O)C2CNc3ccccc3[S+]2[O-])cc1O (centres unmarked) [Compound 125, N-(4-tert-butyl-3-hydroxy-phenyl)-1-oxo-3,4-dihydro-2H-benzo[b][1,4]thiazine-2-carboxamide]
> 100	< 5	Cc1cc(CN2CCC(C)CC2)c(NC(=O)C2CNc3cc(OC(F)(F)F)ccc3O2)cc1O (centres unmarked) [Compound 126]
25 to 100	< 5	Cc1cc(C#CCN(C)C)c(NC(=O)C2CNc3cc(OC(F)(F)F)ccc3O2)cc1C (centres unmarked) [Compound 127]
